The values below come from patent US12514842B2, “Use of a benzoate containing composition to treat neurodegenerative disorders” (Rush University Medical Center, priority 2019, dated 2026).

One assay concerns astroglial activation. The experiment in a line: Astroglial activation in striatum and cortex (GFAP DAB staining). Format: in vivo. The settings on record: N171-82Q Tg mice, about 50 mg/kg body wt/day via gavage, two months. The procedure:
Three-month old transgenic (Tg) mice were treated with glyceryl tribenzoate (about 50 mg/kg body wt/day) via gavage. Control Huntington's disease mice received only 100 μl 0.5% methylcellulose as vehicle. After two months of treatment, astroglial activation was monitored in striatal (FIG. 5A) and cortical (FIG. 5B) sections by DAB staining. Further, the number of glial fibrillary acidic protein (GFAP) (+)ve cells were counted in two striatal (FIG. 5C) and cortical (FIG. 5D) sections of each of six mice per group.
Since astroglia are the major cell type in the CNS, any contribution from this cell type would be significant. Therefore, the inventor also monitored astrogliosis in the CNS of N171-82Q Tg mice.

The subject of assay [1] is interleukin-6 (IL-6) and IL-1β. The experiment in a line: Serum proinflammatory cytokines by sandwich ELISA. Format: in vivo. The note with it: N171-82Q mice, 50 mg/kg body wt/d via gavage, 1 month. On the procedure:
Three-month old Tg mice (n=3 in each group) were treated with GTB (50 mg/kg body wt/d) mixed with 100 μl 0.5% methylcellulose via gavage. Therefore, control HD mice received only 100 μl 0.5% methylcellulose as vehicle. After 1 month of treatment, levels of interleukin-6 (IL-6) and IL-1β were measured in serum by sandwich ELISA.
Results are mean+SEM of three mice per group. *p<0.05; ***p<0.001.
On the technique in general: ELISA stands for enzyme-linked immunosorbent assay.

Assay [2] concerns huntingtin (HTT) inclusion bodies. Put plainly: Huntingtin inclusion bodies in striatum and cortex by immunohistochemistry and Western blotting. The class given is in vivo. The settings on record: N171-82Q Tg mice, about 50 mg/kg body wt/day via gavage, two months. The procedure: Deposition of huntingtin (HTT) inclusion bodies is a pathological hallmark of Huntington's disease. This pathology is based on an expansion of CAG repeats in exon 1 of the huntingtin gene on chromosome 4 that generates a mutant huntingtin protein leading to abnormal HTT aggregates.
Briefly, three-month old transgenic mice were treated with GTB (about 50 mg/kg body wt/day) via gavage. Control Huntington's disease mice received only 100 μl 0.5% methylcellulose as vehicle. After two months of treatment, huntingtin inclusion bodies (HTT) were monitored in brain sections (striatal—FIG. 2A, cortical—FIG. 2B) by immunohistochemistry. Further, HTT positive (“(+)ve”) cells were counted in two sections (striatal—FIG. 2C, cortical—FIG. 2D) of each of six mice per group.
FIG. 2A and 2B show the results from immunohistochemistry, which indicate that administration of GTB reduces the number of HTT inclusion bodies in striatum and cortex. FIGS. 2C and 2D show the number of HTT (+ve) cells in striatum and cortex of GTB treated and untreated mice and indicate a reduction in the number of HTT in treated mice.
This was also confirmed by Western blotting. By Western blotting, the inventor could detect 348 kDa band of aggregated HTT in the cortex that was inhibited by oral GTB treatment (FIG. 2E-2F).
Background: A western blot detects proteins with antibodies after separation by electrophoresis.

Assay [3] deals with microglial activation. Put plainly: Microglial activation in cortex (Iba-1 DAB staining, double-label immunofluorescence, Western blot). The class given is in vivo. The note with it: N171-82Q Tg mice, about 50 mg/kg body wt/day via gavage, two months. On the procedure: Three-month old transgenic (Tg) mice were treated with glyceryl tribenzoate (about 50 mg/kg body wt/day) via gavage. Control Huntington's disease mice received only 100 μl 0.5% methylcellulose as vehicle. After two months of treatment, microglial activation was monitored in cortical sections by DAB staining (FIG. 4A) and double-label immunofluorescence (FIG. 4B). The results shown in FIGS. 4A-4B represent an analysis of six mice per group.
FIG. 4D depicts the Mean Fluorescence Intensity (MFI) of iNOS in control mice (nTg), untreated N171-82Q mice and GTB treated N171-82Q mice. FIG. 4E is the western blot for Iba-1 and iNOS and FIGS. 4F and 4G are a quantitative analysis of the western blot shown in FIG. 4E.
(§1) As evident from Iba-1 immunostaining as well as Iba-1 Western blot, the inventor found microgliosis in the striatum (FIG. 3) and cortex (FIG. 4) of untreated N171-82Q Tg mice. Activated microglia also express inducible nitric oxide synthase (iNOS).

The subject of assay [4] is Huntington transgenic (N171-82Q) mice. The experiment in a line: Locomotor activities after glyceryl tribenzoate nebulization in Huntington transgenic mice. Format: in vivo. The settings on record: nebulization about 2 and about 5 mg/kg body wt/day, six weeks. The source says: Since many features of Huntington's disease are modeled in N171-82Q transgenic mice, the effects of glyceryl tribenzoate nebulization on locomotor activities were examined in N171-82Q mice. A Buxco® Inhalation Tower All-In-One Controller was used to nebulize the glyceryl tribenzoate. A whole-body chamber was fitted with aeroneb ultrasonic nebulizers supplied with air from a Buxco® bias flow pump. Huntington transgenic (N171-82Q) mice were allowed to nebulize glyceryl tribenzoate at doses of about 2 and about 5 mg/kg body wt/day (solubilized in a volume of 100 μl saline/mouse) for 3 min. Briefly, three-month old transgenic mice were treated with different doses (about 2 and about 5 mg/kg body wt/d) of glyceryl tribenzoate solubilized in about 100 μl saline via nebulization. Control Huntington's disease mice received only 100 μl saline as vehicle. After six weeks of treatment, locomotor activities were monitored. Data are mean+SEM of three mice per group.
Velocity refers to the speed at which the mouse walks. Total distance refers to the distance covered by the mouse in a certain period of time. Moving frequency refers to how much a mouse moves around in a given time period and cumulative duration refers to total duration spent at the center.

In assay [5] the test system is microglial activation. The experiment in a line: Microglial activation in striatum (Iba-1 DAB staining, double-label immunofluorescence, Western blot). The class given is in vivo. The settings on record: N171-82Q Tg mice, about 50 mg/kg body wt/day via gavage, two months. The procedure: Three-month old transgenic mice were treated with GTB (about 50 mg/kg body wt/day) via gavage. Control Huntington's disease mice received only 100 μl 0.5% methylcellulose as vehicle. After two months of treatment, microglial activation was monitored in striatal sections by DAB staining (FIG. 3A) and double-label immunofluorescence (FIG. 3B). The results shown in FIGS. 3A-3G represent an analysis of six mice per group.
FIG. 3D depicts the Mean Fluorescence Intensity (MFI) of iNOS in control mice (nTg), untreated N171-82Q mice and GTB treated N171-82Q mice. FIG. 3E is the western blot for Iba-1 and iNOS and FIGS. 3F and 3G are a quantitative analysis of the western blot shown in FIG. 3E.
as §1

A further assay has as its system BDNF and NT-3. The note with it: brain cells; cited from earlier work.
For assay [6], the system named is multiple sclerosis (MS) in mice. The settings on record: cited from earlier work.
The next assay deals with DJ-1. The note with it: astrocytes and neurons; cited from earlier work.

For `O=C(OCC(COC(=O)c1ccccc1)OC(=O)c1ccccc1)c1ccccc1` [glyceryl tribenzoate, 2,3-dibenzoyloxypropyl benzoate], the “astrogliosis in the CNS (GFAP, striatum and cortex)” value in the assay with astroglial activation is listed as “reduced”. In addition, in [1], the “level of IL-1β in serum” value is on record as “significantly decreases” and the “level of IL-6 in serum” value was “significantly decreases”. Besides, the “348 kDa band of aggregated HTT in the cortex” value in assay [2] (Western blotting) is on record as “inhibited”. Further, in [2] (immunohistochemistry), the “HTT inclusion in the cortex” value is listed as “significant reduction” and the “HTT inclusion in the striatum” value was “significant reduction”. Besides, the “expression of iNOS in cortex” value with microglial activation [3] is listed as “significantly inhibited”. The microgliosis in cortex result in the assay on microglial activation [3] (Iba-1) is on record as “significantly inhibited”. Also, in [4] (FIG. 1A), the velocity result is reported as “markedly improved”. In addition, in assay [4] (FIG. 1B), the total distance result is given as “markedly improved”. Besides, in [4] (FIG. 1C), the moving frequency result was “markedly improved”. For the same molecule, the cumulative duration entry in assay [4] (FIG. 1D) was “markedly improved”. Moreover, the rotorod performance entry in [4] (FIG. 1E) is “markedly improved”. Moreover, the “expression of iNOS in striatum” value with microglial activation [5] is on record as “significantly inhibited”. In the assay on microglial activation [5] (Iba-1), the microgliosis in striatum entry is reported as “significantly inhibited”.

Regarding `O=C([O-])c1ccccc1.[Na+]` [sodium benzoate], in the assay with BDNF and NT-3, the “production of BDNF” value is reported as “increases” and the “production of NT-3” value was “increases”. In assay [6], the “disease process of multiple sclerosis (MS)” value was “suppresses”. Moreover, in the assay on DJ-1, the DJ-1 protein entry is listed as “up-regulates”.
